# Source: PubChem BioAssay AID1259407 (Chemical Carcinogenesis Research Information System (CCRIS), 2018)
# Calls of active or inactive are those of the source. No rule for the calls is given here.
# System: CCRIS mutagenicity, Ames/micronucleus/aberration tests
# Test: CCRIS mutagenicity studies
# [1] = Test System: AMES SALMONELLA TYPHIMURIUM, Strain/Indicator: TA98, Metabolic Activation: NONE, Method: PREINCUBATION
# [2] = Test System: AMES SALMONELLA TYPHIMURIUM, Strain/Indicator: TA100, Metabolic Activation: NONE, Method: PREINCUBATION
compound,measurement,setting,value
Cc1ccc([N+](=O)[O-])cc1C,mutagenic call,[1],inactive; negative
same,mutagenic call,"Test System: AMES SALMONELLA TYPHIMURIUM, Strain/Indicator: TA98, Metabolic Activation: RAT, LIVER, S-9, KANECHLOR 500, Method: PREINCUBATION",inactive; negative
same,mutagenic call,[2],inactive; negative
Cn1cccc1,mutagenic call,[1],inactive; negative
same,mutagenic call,"Test System: AMES SALMONELLA TYPHIMURIUM, Strain/Indicator: TA98, Metabolic Activation: RAT, LIVER, S-9, AROCLOR 1254, Method: PREINCUBATION",inactive; negative
same,mutagenic call,[2],inactive; negative
same,mutagenic call,"Test System: AMES SALMONELLA TYPHIMURIUM, Strain/Indicator: TA100, Metabolic Activation: RAT, LIVER, S-9, AROCLOR 1254, Method: PREINCUBATION",inactive; negative
same,mutagenic call,"Test System: AMES SALMONELLA TYPHIMURIUM, Strain/Indicator: TA102, Metabolic Activation: NONE, Method: PREINCUBATION",inactive; negative
same,mutagenic call,"Test System: AMES SALMONELLA TYPHIMURIUM, Strain/Indicator: TA102, Metabolic Activation: RAT, LIVER, S-9, AROCLOR 1254, Method: PREINCUBATION",inactive; negative
BrCCCCBr,mutagenic call,"End Point: IN VITRO CHROMOSOMAL ABERRATIONS, Test System: CHL CELLS, Metabolic Activation: RAT, LIVER, S-9, SODIUM PHENOBARBITAL AND 5,6-BENZOFLAVONE",active; positive (structural changes); authors report equivocal results for ploidy chang
same,mutagenic call,[1],inactive; negative
same,mutagenic call,"Test System: AMES SALMONELLA TYPHIMURIUM, Strain/Indicator: TA98, Metabolic Activation: RAT LIVER S-9, PHENOBARBITAL AND BETA-NAPHTHOFLAVONE, Method: PREINCUBATION",inactive; negative
same,mutagenic call,[2],inactive; negative
same,mutagenic call,"Test System: AMES SALMONELLA TYPHIMURIUM, Strain/Indicator: TA1535, Metabolic Activation: NONE, Method: PREINCUBATION",active; positive
same,mutagenic call,"Test System: AMES SALMONELLA TYPHIMURIUM, Strain/Indicator: TA1535, Metabolic Activation: RAT LIVER S-9, PHENOBARBITAL AND BETA-NAPHTHOFLAVONE, Method: PREINCUBATION",active; positive
same,mutagenic call,"Test System: AMES SALMONELLA TYPHIMURIUM, Strain/Indicator: TA1537, Metabolic Activation: NONE, Method: PREINCUBATION",inactive; negative
same,mutagenic call,"Test System: AMES SALMONELLA TYPHIMURIUM, Strain/Indicator: TA1537, Metabolic Activation: RAT LIVER S-9, PHENOBARBITAL AND BETA-NAPHTHOFLAVONE, Method: PREINCUBATION",inactive; negative
same,mutagenic call,"Test System: E.COLI, Strain/Indicator: WP2UVRA, Metabolic Activation: NONE, Method: PREINCUBATION",active; positive
same,mutagenic call,"Test System: E.COLI, Strain/Indicator: WP2UVRA, Metabolic Activation: RAT LIVER S-9, PHENOBARBITAL AND BETA-NAPHTHOFLAVONE, Method: PREINCUBATION",active; positive
O=[N+]([O-])c1ccc(Nc2ccccc2O)c([N+](=O)[O-])c1,mutagenic call,"Test System: AMES SALMONELLA TYPHIMURIUM, Strain/Indicator: TA97, Metabolic Activation: HAMSTER, LIVER, S-9, AROCLOR 1254 (10%), Method: PREINCUBATION",active; positive
same,mutagenic call,"Test System: AMES SALMONELLA TYPHIMURIUM, Strain/Indicator: TA97, Metabolic Activation: NONE, Method: PREINCUBATION",active; positive
same,mutagenic call,"Test System: AMES SALMONELLA TYPHIMURIUM, Strain/Indicator: TA97, Metabolic Activation: RAT, LIVER, S-9, AROCLOR 1254 (10%), Method: PREINCUBATION",active; positive
same,mutagenic call,"Test System: AMES SALMONELLA TYPHIMURIUM, Strain/Indicator: TA98, Metabolic Activation: HAMSTER, LIVER, S-9, AROCLOR 1254 (10%), Method: PREINCUBATION",active; positive
same,mutagenic call,[1],active; positive
same,mutagenic call,"Test System: AMES SALMONELLA TYPHIMURIUM, Strain/Indicator: TA98, Metabolic Activation: RAT, LIVER, S-9, AROCLOR 1254 (10%), Method: PREINCUBATION",active; positive
same,mutagenic call,"Test System: AMES SALMONELLA TYPHIMURIUM, Strain/Indicator: TA100, Metabolic Activation: HAMSTER, LIVER, S-9, AROCLOR 1254 (10%), Method: PREINCUBATION",active; positive
same,mutagenic call,[2],inactive; negative
same,mutagenic call,"Test System: AMES SALMONELLA TYPHIMURIUM, Strain/Indicator: TA100, Metabolic Activation: RAT, LIVER, S-9, AROCLOR 1254 (10%), Method: PREINCUBATION",active; positive
same,mutagenic call,"Test System: AMES SALMONELLA TYPHIMURIUM, Strain/Indicator: TA1535, Metabolic Activation: RAT, LIVER, S-9, AROCLOR 1254 (10%), Method: PREINCUBATION",active; positive
O=[N+]([O-])c1ccc2nc3ccc([N+](=O)[O-])cc3nc2c1,mutagenic call,"Test System: AMES SALMONELLA TYPHIMURIUM, Strain/Indicator: TA98(NR), Metabolic Activation: NONE, Method: PREINCUBATION",active; positive
same,mutagenic call,[1],active; positive
CCCCNN,mutagenic call,"Test System: AMES SALMONELLA TYPHIMURIUM, Strain/Indicator: TA100, Metabolic Activation: NONE, Method: PREINCUBATION (11 HR GROWTH PERIOD FOR BACTERIA)",active; positive
same,mutagenic call,"Test System: AMES SALMONELLA TYPHIMURIUM, Strain/Indicator: TA100, Metabolic Activation: RAT, LIVER, S-9, PCB, Method: PREINCUBATION (11 HR GROWTH PERIOD FOR BACTERIA)",inactive; negative
same,mutagenic call,"Test System: AMES SALMONELLA TYPHIMURIUM, Strain/Indicator: TA102, Metabolic Activation: NONE, Method: PREINCUBATION (5 OR 7 HR GROWTH PERIOD FOR BACTERIA)",active; positive
same,mutagenic call,"Test System: AMES SALMONELLA TYPHIMURIUM, Strain/Indicator: TA102, Metabolic Activation: RAT, LIVER, S-9, PCB, Method: PREINCUBATION (5 HR GROWTH PERIOD FOR BACTERIA)",inactive; negative
same,mutagenic call,"Test System: AMES SALMONELLA TYPHIMURIUM, Strain/Indicator: TA102, Metabolic Activation: RAT, LIVER, S-9, PCB, Method: PREINCUBATION (7 HR GROWTH PERIOD FOR BACTERIA)",active; positive
O=S(=O)(C(Cl)(Cl)Cl)C(Cl)(Cl)Cl,mutagenic call,"Test System: MOUSE LYMPHOMA, Strain/Indicator: L5178Y (TK+/TK-), Metabolic Activation: NONE, Method: SUSPENSION/PLATE",inactive; negative. reevaluation of results: positive
same,mutagenic call,"Test System: MOUSE LYMPHOMA, Strain/Indicator: L5178Y (TK+/TK-), Metabolic Activation: RAT, LIVER, S-9, AROCLOR 1254, Method: SUSPENSION/PLATE",inactive; negative. reevaluation of results: negative
O=C(O)/C=C(\CCl)C(Cl)Cl,mutagenic call,[1],inactive; negative
same,mutagenic call,[2],active; positive
same,mutagenic call,"Test System: AMES SALMONELLA TYPHIMURIUM, Strain/Indicator: TA104, Metabolic Activation: NONE, Method: PREINCUBATION",inactive; negative
CCCOS(=O)(=O)OCCC,mutagenic call,"End Point: In vitro micronucleus, Test System: Chinese Hamster Ovary (CHO-WBL) cells, Metabolic Activation: None",active; positive (p<0.01)
O=C([O-])c1cccnc1Nc1cccc(C(F)(F)F)c1.O=C([O-])c1cccnc1Nc1cccc(C(F)(F)F)c1.[Cu+2],mutagenic call,"Test System: AMES SALMONELLA TYPHIMURIUM, Strain/Indicator: TA97, Metabolic Activation: MOUSE, LIVER, S-9, Method: STANDARD PLATE",inactive; negative
same,mutagenic call,"Test System: AMES SALMONELLA TYPHIMURIUM, Strain/Indicator: TA97, Metabolic Activation: NONE, Method: STANDARD PLATE",inactive; negative
same,mutagenic call,"Test System: AMES SALMONELLA TYPHIMURIUM, Strain/Indicator: TA97, Metabolic Activation: RAT LIVER S-9, DELOR 103, Method: STANDARD PLATE",inactive; negative
same,mutagenic call,"Test System: AMES SALMONELLA TYPHIMURIUM, Strain/Indicator: TA98, Metabolic Activation: MOUSE, LIVER, S-9, Method: STANDARD PLATE",inactive; negative
same,mutagenic call,"Test System: AMES SALMONELLA TYPHIMURIUM, Strain/Indicator: TA98, Metabolic Activation: NONE, Method: STANDARD PLATE",inactive; negative
same,mutagenic call,"Test System: AMES SALMONELLA TYPHIMURIUM, Strain/Indicator: TA98, Metabolic Activation: RAT LIVER S-9, DELOR 103, Method: STANDARD PLATE",inactive; negative
same,mutagenic call,"Test System: AMES SALMONELLA TYPHIMURIUM, Strain/Indicator: TA100, Metabolic Activation: MOUSE, LIVER, S-9, Method: STANDARD PLATE",inactive; negative
same,mutagenic call,"Test System: AMES SALMONELLA TYPHIMURIUM, Strain/Indicator: TA100, Metabolic Activation: NONE, Method: STANDARD PLATE",inactive; negative
same,mutagenic call,"Test System: AMES SALMONELLA TYPHIMURIUM, Strain/Indicator: TA100, Metabolic Activation: RAT LIVER S-9, DELOR 103, Method: STANDARD PLATE",inactive; negative
same,mutagenic call,"Test System: AMES SALMONELLA TYPHIMURIUM, Strain/Indicator: TA102, Metabolic Activation: MOUSE, LIVER, S-9, Method: STANDARD PLATE",inactive; negative
same,mutagenic call,"Test System: AMES SALMONELLA TYPHIMURIUM, Strain/Indicator: TA102, Metabolic Activation: NONE, Method: STANDARD PLATE",inactive; negative
same,mutagenic call,"Test System: AMES SALMONELLA TYPHIMURIUM, Strain/Indicator: TA102, Metabolic Activation: RAT LIVER S-9, DELOR 103, Method: STANDARD PLATE",inactive; negative
